Assay results published in article PMC9386913 (Arthritis Research & Therapy, 2022).
Where two headings read alike, the source gives them in different places.

Key:
[1] = Plasma pharmacokinetics in MAD study (LC-MS/MS); format: in vivo, human (healthy volunteers); settings: for Cmax: human, plasma
Description: PK parameters were calculated via non-compartmental methodology using Phoenix version 7 or higher (Princeton, NJ).

LPS-stimulated PBMCs [2] = assay: Cytokine production in LPS-stimulated PBMCs; format: cell-based, human; settings: 0.3, 1, and 3 μM
[3] = tested on: LPS-stimulated macrophages; assay: Cytokine secretion in LPS-stimulated monocyte-derived macrophages; format: cell-based, human; settings: LPS 100 ng/mL 4 or 24 h
Description: (§1) Culture supernatants were centrifuged, and the supernatants were collected and analyzed for selected cytokines and chemokines using Milliplex Magpix assays (catalog HCYTO – 60K; Millipore Sigma, Burlington, MA). Levels of proinflammatory cytokines TNF and MCP-1 for the monocytes and macrophages were quantified using specific ELISA kits (R&D, NJ, USA) according to the manufacturer’s recommendations. Data were processed using Milliplex Analyst, and significance was calculated using the one-way analysis of variance (ANOVA) with Dunnett’s post-test algorithms in GraphPad Prism version 5.01. PBMCs were isolated from buffy coat using the Ficoll gradient method. Monocytes were isolated using the […] Technologies Inc. kit (catalog number 19058; Vancouver, BC, Canada). […] Macrophages were then plated and allowed to acclimate for 24 h. […] Medium from the cultured macrophages was used for cytokine analysis using Magpix magnetic beads (Catalog HCYTO – 60K; Millipore Sigma, Burlington, MA). Cell pellets from the macrophage cultures were collected for western blot analysis using capillary electrophoresis to analyze the effect on TTP, with glyceraldehyde 3-phosphate dehydrogenase (GAPDH) used as the house-keeping protein in the capillary electrophoresis. Antibodies against total TTP (CST#7162 Rabbit Monoclonal antibody) and GAPDH (CST#5174 Rabbit Monoclonal antibody) were used to detect the respective proteins.

LPS-stimulated PBMCs [4] = settings: cited from earlier work
THP-1 cells = assay: In vitro tachyphylaxis model: daily treatment of THP-1 cells, LPS-stimulated TNF; settings: up to 14 days, 0.1 or 1 μM CC-99677 or 1 μM p38 inhibitors
LPS-stimulated monocytes = assay: Cytokine secretion in LPS-stimulated monocytes; format: cell-based, human; settings: LPS 100 ng/mL 4 or 24 h
Description: as §1

[5] = tested on: SEB/IL-2-stimulated PBMCs; assay: Cytokine production in SEB/IL-2-stimulated PBMCs; format: cell-based, human; settings: PBMCs from healthy donors and AS patients, SEB + IL-2 72 h
TTP = assay: Total TTP protein by capillary electrophoresis in LPS-stimulated macrophages; format: cell-based, human; settings: 4 h or 24 h
Description: Monocytes and macrophages were pre-treated for 1 h with DMSO or compound, followed by LPS stimulation (100 ng/mL) for 4 or 24 h (includes 1 h pre-treatment). Medium from the cultured macrophages was used for cytokine analysis using Magpix magnetic beads (Catalog HCYTO – 60K; Millipore Sigma, Burlington, MA). Cell pellets from the macrophage cultures were collected for western blot analysis using capillary electrophoresis to analyze the effect on TTP, with glyceraldehyde 3-phosphate dehydrogenase (GAPDH) used as the house-keeping protein in the capillary electrophoresis. Antibodies against total TTP (CST#7162 Rabbit Monoclonal antibody) and GAPDH (CST#5174 Rabbit Monoclonal antibody) were used to detect the respective proteins.

[6] = tested on: LPS-stimulated whole blood; assay: Ex vivo LPS-stimulated whole blood cytokine/chemokine production (TruCulture) in dosed subjects; design: species or system human (healthy volunteers)
Description: Briefly, blood (1 mL) was drawn into the LPS-containing TruCulture tubes. The tubes were placed in a 37 °C block thermostat for 24 ± 1 h and then frozen at −70 °C. Media mixed with plasma were analyzed for TNF and other cytokine/chemokine levels. TNF inhibition in ex vivo LPS-stimulated blood was measured as a percentage change in TNF levels from baseline. Percentage change in other cytokines and chemokines in the ex vivo stimulation assay was also measured with respect to their baseline levels.

[7] = 150-mg dose level cohort, day 5
[8] = continuous dosing at 120 and 150 mg

CCOCc1cnc(Cl)nc1Oc1ccc2c(ccc3sc4c(c32)NC[C@@H](C)NC4=O)n1 [CC-99677]
Dose proportionality of concentration and exposure ([1]; 10 to 150 mg once daily over 14 days): linear, dose-proportional increase in concentration and exposure
Day-to-day plasma accumulation ([1]; all 5 dose levels, minimal detectable plasma CC-99677 > 24 h after dosing): limited to no day-to-day plasma accumulation
Cmax ([1]; oral, 150-mg dose level, read-out: Geometric mean Cmax expressed as molar concentration): ~800 nM
Cmax ([1]; day 1, 10 mg oral, read-out: Geometric mean peak concentration (Cmax, CV%)): 20.5 ng/mL
Cmax ([1]; day 1, 30 mg oral, read-out: Geometric mean peak concentration (Cmax, CV%)): 63.4 ng/mL
Cmax ([1]; day 1, 60 mg oral, read-out: Geometric mean peak concentration (Cmax, CV%)): 150 ng/mL
Cmax ([1]; day 1, 120 mg oral, read-out: Geometric mean peak concentration (Cmax, CV%)): 269 ng/mL
Cmax ([1]; day 1, 150 mg oral, read-out: Geometric mean peak concentration (Cmax, CV%)): 257 ng/mL
GM-CSF production (LPS-stimulated PBMCs [2]; PBMCs from AS patients and healthy volunteers): inhibited GM-CSF in PBMCs from AS patients to similar levels as those seen in healthy volunteers
TNF production (LPS-stimulated PBMCs [2]; PBMCs from AS patients, 1 h pretreatment, LPS 50 ng/mL): concentration-dependent inhibition of TNF production
TNF secretion [3]: strong concentration-dependent inhibition
IL-1β secretion ([3]; more potent than in monocytes): concentration-dependent inhibition
IL-6 secretion ([3]; more potent than in monocytes): concentration-dependent inhibition
Inflammatory cytokine production including TNF, IL-6, and GM-CSF (LPS-stimulated PBMCs [4]; LPS-stimulated healthy donor PBMCs): inhibits inflammatory cytokine production
IL-1β inhibition in PBMCs after LPS stimulation (LPS-stimulated PBMCs [4]; PBMCs): no inhibition of IL-1β was observed
LPS-stimulated TNF production under continued daily treatment (THP-1 cells): suppressed TNF production throughout the treatment period
IL-1β secretion (LPS-stimulated monocytes): concentration-dependent inhibition
IL-6 secretion (LPS-stimulated monocytes): concentration-dependent inhibition
TNF secretion (LPS-stimulated monocytes): strong concentration-dependent inhibition
IL-6 expression [5]: inhibited
IL-17A expression [5]: inhibited
MCP-1 expression [5]: inhibited
TNF expression [5]: inhibited
Total TTP levels (surrogate for TTP phosphorylation state) (TTP): dose-dependent reduction in total TTP levels
Onset of reduction of TNF production ([6]; 60-, 120-, and 150-mg dose cohorts): reduced as early as day 2
Maximal TNF inhibition (percentage change from baseline) ([6]; 150-mg dose cohort): 70%
TNF inhibition maintained during the dosing period ([6]; 150-mg dose cohort, 14 days): approximately 70%
Maximal inhibition of IL-6 [6, 7]: 50%
Maximal inhibition of MIP-1α [6, 7]: 50%
TNF inhibition, ex vivo LPS-stimulated blood ([6]; all doses > 10 mg): inhibited TNF at all doses > 10 mg, and this inhibition was sustained until day 14
MIP-1α production [6, 8]: inhibited with continuous dosing
MIP-1β production [6, 8]: inhibited with continuous dosing
